Results on 22 compounds are retold here after patent US7799775B2, “Pyrimidine derivatives” (ASKA Pharmaceutical Co., Ltd., priority 2004, dated 2010).

The experiment addresses T1, human 5-HT3 receptor (Homo sapiens, UniProt P46098).
T1 construct: purchased BIOLINKS K.K; host or cells: HEK-293 cells (membrane preparation)
T1 sequence (P46098 24-478): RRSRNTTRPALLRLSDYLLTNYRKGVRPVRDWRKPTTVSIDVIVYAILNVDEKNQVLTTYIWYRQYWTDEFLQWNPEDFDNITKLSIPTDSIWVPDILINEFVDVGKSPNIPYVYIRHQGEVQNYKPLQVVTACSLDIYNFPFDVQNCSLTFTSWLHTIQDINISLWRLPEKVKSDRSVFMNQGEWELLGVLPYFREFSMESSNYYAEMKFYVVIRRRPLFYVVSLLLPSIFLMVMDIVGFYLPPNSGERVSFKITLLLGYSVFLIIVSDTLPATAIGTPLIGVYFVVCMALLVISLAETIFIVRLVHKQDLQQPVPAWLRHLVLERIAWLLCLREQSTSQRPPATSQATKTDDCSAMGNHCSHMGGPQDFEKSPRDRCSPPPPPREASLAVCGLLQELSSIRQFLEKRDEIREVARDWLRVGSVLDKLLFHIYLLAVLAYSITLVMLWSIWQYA
As to the kind of experiment: Measurement of affinity to human 5-HT3 receptor (in vitro), [3H]BRL-43694 binding. Particulars: test compound 100 nmols/L; [3H]BRL-43694 0.5 nmols/L; HEK-293 cell membrane expressing human 5-HT3 receptor; read-out: Percent Inhibition (%) on Each Receptor's Binding at 10^−7M, 5-HT3. The procedure, abridged:
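Membranes from HEK-293 cells expressing the receptor were incubated with 0.5 nmol/L radioligand and compound for 60 min at 25 °C in Tris/MgCl2/EDTA buffer, pH 7.5. Bound radioactivity was collected by filtration and counted. Percent inhibition was corrected for non-specific binding defined with 10 μmol/L tropisetron; compounds were tested at 100 nmol/L.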

As for `Nn1c(CCCCN2CCN(c3ccc4ccccc4n3)CC2)nc2c(c1=O)CCCC2` [Example 4-1, 3-amino-2-[4-(4-quinolin-2-ylpiperazin-1-yl)butyl]-5,6,7,8-tetrahydro-3H-quinazolin-4-one], the inhibition at 0.1 µM stood at 81.2%.
Under `Nn1c(CCCCN2CCN(c3ccc4ccccc4n3)CC2)nc2ccccc2c1=O` [Example 4-3, 3-amino-2-[4-(4-quinolin-2-ylpiperazin-1-yl)butyl]-3H-quinazolin-4-one] stands 83.6%; under `Cc1cc(N2CCN(CCCCc3nc4ccccc4c(=O)n3N)CC2)nc2ccccc12` [Example 4-4, 3-amino-2-[4-[4-(4-methylquinolin-2-yl)piperazin-1-yl]butyl]-3H-quinazolin-4-one], 78.6%; under `Nn1c(CCCCN2CCN(c3ccc4ccccc4n3)CC2)nc2ccsc2c1=O` [Example 4-18, 3-amino-2-[4-(4-quinolin-2-ylpiperazin-1-yl)butyl]-3H-thieno[3,2-d]-pyrimidin-4-one], 50.9%.
With `Nn1c(CCCCN2CCN(c3ccc4ccccc4n3)CC2)nc2cccc(Cl)c2c1=O` [Example 4-25, 3-amino-5-chloro-2-[4-(4-quinolin-2-ylpiperazin-1-yl)butyl]-3H-quinazolin-4-one] the figure was 43.3%.
`Cn1c(CCCCN2CCN(c3ccc4ccccc4n3)CC2)nc2c(c1=O)CCCC2` [Example 7-1, 3-methyl-2-[4-(4-quinolin-2-ylpiperazin-1-yl)butyl]-5,6,7,8-tetrahydro-3H-quinazolin-4-one]: the inhibition at 0.1 µM turned out to be 94.2%.
Turning to `CCn1c(CCCCN2CCN(c3ccc4ccccc4n3)CC2)nc2c(c1=O)CCCC2` [Example 7-2, 3-2-[4-(4-quinolin-2-ylpiperazin-1-yl)butyl]-5,6,7,8-tetrahydro-3H-quinazolin-4-one], the inhibition at 0.1 µM came to 94.5%.
With `Cc1cc(N2CCN(CCCCc3nc4c(c(=O)n3C)CCCC4)CC2)nc2ccccc12` [Example 7-6, 3-methyl-2-[4-[4-(4-methylquinolin-2-yl)piperazin-1-yl]butyl]-5,6,7,8-tetrahydro-3H-quinazolin-4-one] the figure was 93.8%; with `CCn1c(CCCCN2CCN(c3cc(C)c4ccccc4n3)CC2)nc2c(c1=O)CCCC2` [Example 7-7, 3-ethyl-2-[4-[4-(4-methylquinolin-2-yl)piperazin-1-yl]butyl]-5,6,7,8-tetrahydro-3H-quinazolin-4-one], 95%; with `Cn1c(CCCCN2CCN(c3ccc4ccccc4n3)CC2)nc2ccccc2c1=O` [Example 7-20, 3-methyl-2-[4-(4-quinolin-2-ylpiperazin-1-yl)butyl]-3H-quinazolin-4-one], 92.9%.
Regarding `CN1CCN(c2nccc3ccsc23)CC1` [Production Example 6, 7-(4-methylpiperazin-1-yl)thieno[2,3-c]pyridine], the inhibition at 0.1 µM was found to be 97.5%.
With `CN1CCN(c2nccc3sccc23)CC1` [Production Example 8, 4-(4-methylpiperazin-1-yl)thieno[3,2-c]pyridine] the figure was 93.3%.
Under `COc1ccc2ccnc(N3CCNC(C)C3)c2c1` (stereo not shown) [Production Example 38, 7-methoxy-1-(3-methylpiperazin-1-yl)isoquinoline] stands 93.1%; under `Cc1ccc2ccnc(N3CCN(C)CC3)c2c1` [Production Example 47, 7-methyl-1-(4-methylpiperazin-1-yl)isoquinoline], 93.6%; under `Clc1ccc2ccnc(N3CCNCC3)c2c1` [Production Example 49, 7-chloro-1-piperazin-1-ylisoquinoline], 96.3%.
As to `COc1ccc2ccnc(N3CCN4CCC[C@H]4C3)c2c1` [Production Example 72, 1-((8aS)-octahydropyrrolo[1,2-a]pyrazin-2-yl)-7-methoxyisoquinoline], the inhibition at 0.1 µM came out at 99.8%.
As for `Clc1ccc2ccnc(N3CCN4CCC[C@H]4C3)c2c1` [Production Example 73, 7-chloro-1-((8aS)-octahydropyrrolo[1,2-a]pyrazin-2-yl)isoquinoline], the inhibition at 0.1 µM came to 99.3%.
As for `c1cc2ccoc2c(N2CCN3CCC[C@H]3C2)n1` [Production Example 102, 7-((8aS)-octahydropyrrolo[1,2-a]pyrazin-2-yl)furo[2,3-c]-pyridine], the inhibition at 0.1 µM was determined as 98.9%.
Under `c1cc2ccsc2c(N2CCN3CCC[C@H]3C2)n1` [Production Example 103, 7-((8aS)-octahydropyrrolo[1,2-a]pyrazin-2-yl)thieno[2,3-c]pyridine] stands 99.5%; under `c1cc2sccc2c(N2CCN3CCC[C@H]3C2)n1` [Production Example 104, 4-((8aS)-octahydropyrrolo[1,2-a]pyrazin-2-yl)thieno[3,2-c]pyridine], 99.3%.
With `Cc1cc2c(N3CCN4CCC[C@H]4C3)nccc2s1` [Production Example 107, 4-((8aS)-octahydropyrrolo[1,2-a]pyrazin-2-yl)-2-methylthieno[3,2-c]-pyridine], the inhibition at 0.1 µM amounted to 95.9%.
As for `c1cc2ccsc2c(N2CCN3CCC[C@@H]3C2)n1` [Production Example 108, 7-((8aR)-octahydropyrrolo[1,2-a]pyrazin-2-yl)thieno[2,3-c]pyridine], the inhibition at 0.1 µM was 100%.
